Measured values from patent publication US9828389B2, “Tetrazolinone compounds and their use as pesticides” (SUMITOMO CHEMICAL COMPANY, LIMITED, priority 2012, dated 2017).

Experiments:
[1] = tested on: cotton aphid (Aphis gossypii); experiment: Cotton aphid control test, spray on infested cucumber; format: in vivo; conditions: 144 h, 20 mL sprayed on cucumber with 30 aphids, counted after 6 days
Method: Cucumber (cv; Sagami-hanjiro-fushinari) was grown in a polyethylene cup until the first true leaf was developed. Thirty (30) heads of cotton aphid (Aphis gossypii) (including the adults and the larvae) was released onto the leaves of the […] and next day, the above-mentioned testing drug dilutions 20 mL were sprayed. […] Control value (%)={1−(Cb×Tai)/(Cai×Tb)}×100 wherein the symbols in the formula represent the following descriptions. Cb: Number of the insects before treatment in untreated area; Cai: Number of the insects at the time of the observation in untreated area; Tb: Number of the insects before treatment in treated area; Tai: Number of the insects at the time of the observation in treated area;

[2] = tested on: wheat rust fungi (Puccinia recondita); experiment: Wheat rust control test, foliar spray on wheat; format: in vivo; conditions: Comparative Test Example: wheat (cv; Shirogane), foliar spray 500 ppm, inoculated after 5 days, observed after 1+8 days
Method: The spores of wheat rust fungi (Puccinia recondita) were sprinkling-inoculated. After inoculation, the plants were placed under a dark and humid condition at 23° C. for 1 day and were then cultivated at 20° C. under lighting for 8 days and a lesion area was observed.

Row | SMILES | pest or weed control at 500 ppm [1] [%] | lesion area compared to the lesion area in untreated plants [2] [%]
1 | Cc1cc(C)n(-c2ccc(OCc3c(Cl)cccc3-n3nnn(C)c3=O)c(Cl)c2)n1 [Present compound 9, 1-{3-chloro-2-[2-chloro-4-(3,5-dimethyl-pyrazol-1-yl)-phenoxymethyl]-phenyl}-4-methyl-1,4-dihydrotetrazole-5-one] | ≥ 90 | 
2 | Cc1cc(C)n(-c2ccc(OCc3c(Cl)cccc3-n3nnn(C)c3=O)cc2Cl)n1 [Present compound 11, 1-{3-chloro-2-[3-chloro-4-(3,5-dimethyl-pyrazol-1-yl)-phenoxymethyl]-phenyl}-4-methyl-1,4-dihydrotetrazole-5-one] | ≥ 90 | 
3 | Cc1ccn(-c2ccc(OCc3c(C)cccc3-n3nnn(C)c3=O)c(C)c2)n1 [Present compound 22, 1-{3-methyl-2-[2-methyl-4-(3-methyl-pyrazol-1-yl)-phenoxymethyl]-phenyl}-4-methyl-1,4-dihydrotetrazole-5-one] | ≥ 90 | 
4 | CCc1cccc(-n2nnn(C)c2=O)c1COc1ccc(-n2nc(C)cc2C)cc1C [Present compound 50, 1-{3-ethyl-2-[2-methyl-4-(3,5-dimethyl-pyrazol-1-yl)-phenoxymethyl]-phenyl}-4-methyl-1,4-dihydrotetrazole-5-one] | ≥ 90 | 
5 | CCc1cccc(-n2nnn(C)c2=O)c1COc1ccc(-n2cc(C)c(C)n2)cc1C [Present compound 53, 1-{3-ethyl-2-[2-methyl-4-(3,4-dimethyl-pyrazol-1-yl)-phenoxymethyl]-phenyl}-4-methyl-1,4-dihydrotetrazole-5-one] | ≥ 90 | 
6 | CCc1cccc(-n2nnn(C)c2=O)c1COc1ccc(-c2cc(C)n(C)n2)cc1C [Present compound 59, 1-{3-ethyl-2-[2-methyl-4-(1,5-dimethyl-1H-pyrazol-3-yl)-phenoxymethyl]-phenyl}-4-methyl-1,4-dihydrotetrazole-5-one] | ≥ 90 | 
7 | COc1cccc(-n2nnn(C)c2=O)c1COc1ccc(-c2cnn(C)c2)cc1C [Present compound 68, 1-{3-methoxy-2-[2-methyl-4-(1-methyl-1H-pyrazole-4-yl)-phenoxymethyl]-phenyl}-4-methyl-1,4-dihydrotetrazole-5-one] | ≥ 90 | 
8 | COc1cccc(-n2nnn(C)c2=O)c1COc1ccc(-c2cnn(CC(C)C)c2)cc1C [Present compound 77, 1-{3-methoxy-2-[2-methyl-4-(1-isobutyl-1H-pyrazole-4-yl)-phenoxymethyl]-phenyl}-4-methyl-1,4-dihydrotetrazole-5-one] | ≥ 90 | 
9 | CCn1ccc(-c2ccc(OCc3c(OC)cccc3-n3nnn(C)c3=O)c(C)c2)n1 [Present compound 87, 1-{3-methoxy-2-[2-methyl-4-(1-ethyl-1H-pyrazol-3-yl)-phenoxymethyl]-phenyl}-4-methyl-1,4-dihydrotetrazole-5-one] | ≥ 90 | 
10 | COc1cccc(-n2nnn(C)c2=O)c1COc1ccc(-c2ccn(S(C)(=O)=O)n2)cc1C [Present compound 112, 1-{3-methoxy-2-[2-methyl-4-(1-methanesulfonyl-1H-pyrazol-3-yl)-phenoxymethyl]-phenyl}-4-methyl-1,4-dihydrotetrazole-5-one] | ≥ 90 | 
11 | CCOc1cccc(-n2nnn(C)c2=O)c1COc1ccc(-n2cc(C)c(C)n2)cc1C [Present compound 129, 1-{3-ethoxy-2-[2-methyl-4-(3,4-dimethyl-pyrazol-1-yl)-phenoxymethyl]-phenyl}-4-methyl-1,4-dihydrotetrazole-5-one] | ≥ 90 | 
12 | COc1cccc(-n2nnn(C)c2=O)c1COc1ccc(-c2nn(C)cc2C)cc1Cl [Present compound 154, 1-{3-methoxy-2-[2-chloro-4-(1,4-dimethyl-1H-pyrazol-3-yl)-phenoxymethyl]-phenyl}-4-methyl-1,4-dihydrotetrazole-5-one] | ≥ 90 | 
13 | CCc1cccc(-n2nnn(C)c2=O)c1COc1ccc(-c2nn(C)c(Cl)c2C)cc1C [Present compound 206, 1-{3-ethyl-2-[2-methyl-4-(5-chloro-1,4-dimethyl-1H-pyrazol-3-yl)-phenoxymethyl]-phenyl}-4-methyl-1,4-dihydrotetrazole-5-one] | ≥ 90 | 
14 | Cc1cc(-c2nn(C)c(Cl)c2C)ccc1OCc1c(-n2nnn(C)c2=O)cccc1C(F)(F)F [Present compound 209, 1-{2-[2-methyl-4-(5-chloro-1,4-dimethyl-1H-pyrazol-3-yl)-phenoxymethyl]-3-trifluoromethyl-phenyl}-4-methyl-, 4-dihydrotetrazole-5-one] | ≥ 90 | 
15 | CCOc1cccc(-n2nnn(C)c2=O)c1COc1ccc(-c2nn(C)c(Cl)c2C)cc1C [Present compound 210, 1-{3-ethoxy-2-[2-methyl-4-(5-chloro-1,4-dimethyl-1H-pyrazol-3-yl)-phenoxymethyl]-phenyl}-4-methyl-1,4-dihydrotetrazole-5-one] | ≥ 90 | 
16 | Cc1cc(C)n(-c2ccc(OCc3ccccc3-n3nnn(C)c3=O)c(Cl)c2)n1 [control compound, 1-{2-{2-chloro-4-(3,5-dimethyl-pyrazole-1-yl)-phenoxymethyl}-phenyl}-4-methyl-1,4-dihydrotetrazole-5-one] |  | ≥ 70
